Data reported in ChEMBL document CHEMBL3407431, “Structure-based modification of 3-/4-aminoacetophenones giving a profound change of activity on tyrosinase: from potent activators to highly efficient inhibitors” (Eur J Med Chem, 2015).
Calls of active or inactive are those of the source. No cut-off for these calls is given here.

Each molecule was assayed against T1, Tyrosinase (Agaricus bisporus) (UniProt O42713) (assay: Reversible inhibition of mushroom tyrosinase using L-DOPA as substrate at 0.1 to 0.5 uM).
T1 sequence (whole entry): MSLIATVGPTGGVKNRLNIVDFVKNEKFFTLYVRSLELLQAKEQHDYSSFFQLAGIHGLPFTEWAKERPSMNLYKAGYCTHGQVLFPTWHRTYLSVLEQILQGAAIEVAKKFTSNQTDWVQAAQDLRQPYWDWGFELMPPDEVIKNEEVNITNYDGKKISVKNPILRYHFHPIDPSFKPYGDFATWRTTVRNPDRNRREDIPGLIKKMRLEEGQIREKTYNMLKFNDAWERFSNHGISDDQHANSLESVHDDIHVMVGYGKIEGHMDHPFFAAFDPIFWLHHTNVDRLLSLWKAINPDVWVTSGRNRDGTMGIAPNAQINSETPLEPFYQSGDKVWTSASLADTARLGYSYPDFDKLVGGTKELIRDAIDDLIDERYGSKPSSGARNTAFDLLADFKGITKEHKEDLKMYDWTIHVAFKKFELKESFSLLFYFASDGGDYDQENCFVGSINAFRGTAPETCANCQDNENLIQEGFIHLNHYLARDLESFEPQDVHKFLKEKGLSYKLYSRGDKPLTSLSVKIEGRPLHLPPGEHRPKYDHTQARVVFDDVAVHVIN

For `C/C(=N\NC(N)=S)c1ccc(NC(=O)c2ccccc2)cc1`, the inhibition was “Active”.

The molecules below were run against T1, Tyrosinase (Agaricus bisporus) (assay: Activation of mushroom tyrosinase at 0.12 to 75 ug/L relative to control).

For `OC[C@H]1O[C@@H](Oc2c(O)cc(O)cc2/C=C/c2ccc(O)cc2)[C@H](O)[C@@H](O)[C@@H]1O`, the Activity was 12%.

What follows are molecules tested against T1, Tyrosinase (Agaricus bisporus) (assay: Competitive-uncompetitive mixed-2 type inhibition of mushroom tyrosinase using L-DOPA as substrate at 1 to 2 uM by Lineweaver-Burk plot analysis).

For `C/C(=N\NC(N)=S)c1cccc(NC(=O)c2ccccc2)c1`, the inhibition was “Active”.

What follows are molecules tested against T2, Tyrosinase (Agaricus bisporus, UniProt O42713).
T2 sequence (O42713 whole entry): T1 sequence (whole entry)
Description: Inhibition of mushroom tyrosinase diphenolase activity using L-DOPA as substrate preincubated for 30 mins followed by substrate addition measured for 1 min

Point of comparison: `C/C(=N\NC(N)=S)c1cccc(NC(=O)C(F)(F)F)c1`, IC50 5760 nM. Against it:
- C/C(=N\NC(N)=S)c1ccc(NC(=O)C(Cl)(Cl)Cl)cc1 — 14-fold lower, 406 nM
- CCCCCC(=O)Nc1cccc(/C(C)=N/NC(N)=S)c1 — 3.4-fold lower, 1690 nM
- C/C(=N\NC(N)=S)c1ccc(N)cc1 — 2.2-fold lower, 2620 nM
- COc1ccc(C(=O)Nc2ccc(/C(C)=N/NC(N)=S)cc2)cc1 — 5.1-fold lower, 1140 nM
- C/C(=N\NC(N)=S)c1ccc(NC(=O)c2ccc(F)cc2)cc1 — 9.4-fold lower, 610 nM
- C/C(=N\NC(N)=S)c1ccc(NC(=O)C(F)(F)F)cc1 — 4.3-fold lower, 1340 nM
- C/C(=N\NC(N)=S)c1cccc(NC(=O)C(C)(C)C)c1 — within 1.5-fold, 4410 nM
- C/C(=N\NC(N)=S)c1cccc(NC(=O)c2ccccc2)c1 — 3.8-fold lower, 1530 nM
- CC(=O)Nc1ccc(/C(C)=N/NC(N)=S)cc1 — 11-fold lower, 508 nM
- CCC(=O)Nc1ccc(/C(C)=N/NC(N)=S)cc1 — 15-fold lower, 372 nM
- CCCCCC(=O)Nc1ccc(/C(C)=N/NC(N)=S)cc1 — 7.6-fold lower, 762 nM
- CCCCC(=O)Nc1ccc(/C(C)=N/NC(N)=S)cc1 — 12-fold lower, 492 nM
- CCCCCCC(=O)Nc1ccc(/C(C)=N/NC(N)=S)cc1 — 16-fold lower, 356 nM
- COC(=O)Nc1ccc(/C(C)=N/NC(N)=S)cc1 — 12-fold lower, 498 nM
- CC(=O)Nc1cccc(/C(C)=N/NC(N)=S)c1 — within 1.5-fold, 4120 nM
- C/C(=N\NC(N)=S)c1cccc(N)c1 — within 1.5-fold, 6110 nM
- C/C(=N\NC(N)=S)c1ccc(NC(=O)Cc2ccccc2)cc1 — 10-fold lower, 578 nM
- CCCCCCC(=O)Nc1cccc(/C(C)=N/NC(N)=S)c1 — 2.6-fold lower, 2200 nM
- C/C(=N\NC(N)=S)c1cccc(NC(=O)Cc2ccccc2)c1 — 3.2-fold lower, 1790 nM
- CCCCC(=O)Nc1cccc(/C(C)=N/NC(N)=S)c1 — 3.7-fold lower, 1540 nM
- C/C(=N\NC(N)=S)c1ccc(NC(=O)C(C)C)cc1 — 7.1-fold lower, 814 nM
- C/C(=N\NC(N)=S)c1cccc(NC(=O)C(C)C)c1 — 1.6-fold lower, 3620 nM
- C/C(=N\NC(N)=S)c1ccc(NC(=O)c2ccccc2)cc1 — 20-fold lower, 291 nM
- CCCC(=O)Nc1ccc(/C(C)=N/NC(N)=S)cc1 — 8.9-fold lower, 644 nM

The molecules below were run against T1, Tyrosinase (Agaricus bisporus) (assay: Reversible inhibition of mushroom tyrosinase using L-DOPA as substrate at 1 to 2 uM).

In the case of `C/C(=N\NC(N)=S)c1cccc(NC(=O)c2ccccc2)c1`, the inhibition is reported as “Active”.

The molecules below were run against T1, Tyrosinase (Agaricus bisporus) (assay: Activation of mushroom tyrosinase using L-DOPA as substrate at 100 umol/L preincubated for 30 mins followed by substrate addition measured for 1 min).

`CC(=O)Nc1ccc(C(C)=O)cc1` was tested, and the Activity was “Active”.

What follows are molecules tested against T1, Tyrosinase (Agaricus bisporus) (assay: Non-competitive inhibition of mushroom tyrosinase using L-DOPA as substrate at 0.1 to 0.5 uM by Lineweaver-Burk plot analysis).

With `C/C(=N\NC(N)=S)c1ccc(NC(=O)c2ccccc2)cc1` the inhibition was “Active”.
